Laboratory results as given in US20180140609A1, “USE OF (4-HYDROXY-2-METHYL-1,1-DIOXIDO-2H-BENZO[E][1,2]THIAZINE-3-YL)(NAPHTHALENE-2-YL) METHANONE IN THE PREVENTION AND/OR TREATMENT OF NON-ALCOHOLIC STEATOHEPATITIS” (PIERRE FABRE MEDICAMENT, priority 2015, published 2018).
Read-outs that look alike come from different tables or passages of the source.

Assays:
Assay type in all cases: in vivo
human 11β-HSD type 1 [1] = molecular target: T1, human 11β-HSD type 1 (Homo sapiens, UniProt P28845); test: Plasma bioactivity after single oral administration in C57BL/6N mice, read as inhibition of human 11β-HSD type 1 (SPA); details: for inhibition at 2.5 mg/kg: 2.5 mg/kg oral; for inhibition at 2.5 mg/kg / inhibition at 10 mg/kg: table with plasma levels; for inhibition at 10 mg/kg: 10 mg/kg oral
Experimental: (§1) The evaluation is made in on 4- to 6-week-old non-fasted male C57BL/6N strain mice. The compounds to be tested or the vehicle (0.5% methylcellulose in water, at 10 ml/kg) are administered orally; n=3 mice per treatment.
(§2) Blood samples are collected 1 h and 4 h after administration; the tubes are centrifuged to obtain plasma and frozen at −70° C. until bioanalysis. Plasma bioactivity (2% final volume) is analyzed by using the inhibition of human 11β-HSD type 1 as a detection system (SPA technology) for each compound at each dose tested. Percent inhibition (versus mice treated with carrier) is calculated for each dose.

human 11β-HSD type 1 [2] = molecular target: T1, human 11β-HSD type 1; test: Bioactivity of inguinal white adipose tissue after single oral administration in C57BL/6N mice, read as inhibition of human 11β-HSD type 1 (SPA); details: mouse inguinal white adipose tissue extract
Experimental: Four hours post-administration, the mice are euthanized and inguinal white adipose tissue is taken and frozen at −70° C. until the day of bioanalyses. The white adipose tissue is homogenized in liquid nitrogen and then treated with acetonitrile (1 ml of distilled water for 4 ml of acetonitrile and 200 mg of inguinal white adipose tissue) to extract soluble substances. The acetonitrile fraction is collected, then dried, and the residue is dissolved in 1 ml of DMSO for 300 mg of white adipose tissue.
Compounds tested: the same as those of Example 2.

11β-HSD type 1 = test: Inhibition of conversion of prednisone to prednisolone after single administration to cynomolgus monkeys; details: for inhibition of plasma prednisolone/prednisone ratio of AUC (30 minutes to 4 hours): prednisone 10 mg/kg 2 h later; for inhibition of the prednisolone/prednisone ratio in animals that respond favorably: responders only
Experimental: The protocol used is described by Bhat et al. (J. Pharmacol. Exp. Ther. 324, 299-305, 2008).
(§3) Briefly, the study is carried out in naive adult male cynomolgus monkeys fasted overnight. The 11β-HSD type 1 inhibitor or its vehicle (0.5% methylcellulose in water) is administered via nasogastric intubation. Two hours later, a challenge with orally administered prednisone (10 mg/kg) is performed and blood samples are taken regularly for 24 hours. These samples are centrifuged to obtain plasma and immediately frozen at −70° C. until bioanalysis. Plasma levels of prednisone, prednisolone and 11β-HSD type 1 inhibitors are measured by LC-MS/MS analytical methods.
(§4) The study is carried out over a period of 10 weeks. Profiles of plasma concentration as a function of time and areas under the curve are calculated using the trapezoidal method for all parameters.
The effect of Compound 1 is evaluated at three doses: 1.25, 5 and 20 mg/kg.
The effect of Compound 1K is evaluated at three doses: 20, 40 and 80 mg/kg. The protocol is quite similar to the preceding, except that only 5 blood samples were taken per monkey rather than 7. Compound 1K was also evaluated over a period of 10 weeks.
The 11β-HSD type 1 activity-dependent conversion of prednisone to prednisolone was evaluated. Compound 2K inhibits roughly 50% this activity at a dose of 20 mg/kg (FIG. 2A). FIG. 2 represents the effects of Compound 2K, at the three doses tested, on plasma prednisolone/prednisone ratio calculated with the area under the curve between 30 minutes and 4 hours (panel A) and on plasma exposure during the 6-hour experimental period (panel B); the results obtained with Compound 1K at a dose of 5 mg/kg are compared in the two panels.

[3] = Plasma level by LC/MS after single oral administration in C57BL/6N mice; details: parent molecule by LC/MS
Experimental: as §1, §2
Compound 1 is detected in the plasma of the treated mice and inhibits 11β-HSD type 1 as of 0.63 mg/kg. LC/MS analyses of plasma samples from the animals treated with Compound 1K show a much higher plasma level of the parent molecule than that found for Compound 1.

[4] = Clinical and behavioral signs in cynomolgus monkeys during the prednisone challenge studies; details: study no. 1, 1.25, 5 and 20 mg/kg
Experimental: as §3, §4

[5] = mouse plasma, 1 h after 10 mg/kg oral
[6] = mouse plasma, 1 h after 40 mg/kg oral
[7] = mouse plasma, 4 h after 10 mg/kg oral
[8] = mouse plasma, 4 h after 40 mg/kg oral
[9] = mouse plasma (2% final volume), 1 h after 0.63 mg/kg oral
[10] = mouse plasma, 1 h after 2.5 mg/kg oral
[11] = mouse plasma, 4 h after 0.63 mg/kg oral
[12] = mouse plasma, 4 h after 2.5 mg/kg oral
[13] = mice, 1 h, read-out: Plasma 1 h % inh.
[14] = mice, 4 h, read-out: Plasma 4 h % inh.

T1 sequence (P28845 whole entry): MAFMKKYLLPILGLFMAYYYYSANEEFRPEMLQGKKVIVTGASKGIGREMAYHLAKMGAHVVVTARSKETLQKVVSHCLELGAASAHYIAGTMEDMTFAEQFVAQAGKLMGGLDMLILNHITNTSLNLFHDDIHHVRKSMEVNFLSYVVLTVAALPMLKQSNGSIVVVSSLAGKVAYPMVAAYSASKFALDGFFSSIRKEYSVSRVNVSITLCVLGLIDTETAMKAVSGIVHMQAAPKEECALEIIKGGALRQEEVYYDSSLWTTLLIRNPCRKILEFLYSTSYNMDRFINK

Row | Compound | % inhibition at 1 h (human 11β-HSD type 1 [1]; [5]) [%] | % inhibition at 1 h (human 11β-HSD type 1 [1]; [6]) [%] | % inhibition at 4 h (human 11β-HSD type 1 [1]; [7]) [%] | % inhibition at 4 h (human 11β-HSD type 1 [1]; [8]) [%] | % inhibition after 4 h (human 11β-HSD type 1 [2]; 4 h after 10 mg/kg oral) [%] | % inhibition after 4 h (human 11β-HSD type 1 [2]; 4 h after 40 mg/kg oral) [%] | % inhibition at 1 h (human 11β-HSD type 1 [1]; [9]) [%] | % inhibition at 1 h (human 11β-HSD type 1 [1]; [10]) [%] | % inhibition at 4 h (human 11β-HSD type 1 [1]; [11]) [%] | % inhibition at 4 h (human 11β-HSD type 1 [1]; [12]) [%] | inhibition of plasma prednisolone/prednisone ratio of AUC (30 minutes to 4 hours) (11β-HSD type 1; 20 mg/kg) | % inhibition after 4 h (human 11β-HSD type 1 [2]; 4 h after 0.63 mg/kg oral) [%] | % inhibition after 4 h (human 11β-HSD type 1 [2]; 4 h after 2.5 mg/kg oral) [%] | other results
1 | C1CCc2nnc(C34CC5CC(CC(C5)C3)C4)n2CC1 [Compound 3, 3-(1-adamantyl)-6,7,8,9-tetrahydro-5H-[1,2,4]triazolo[4,3-a]azepine, reference compound] | 93 | 98 | 22 | 68 | 15 | 8 | – | – | – | – | – | – | – | % inhibition at 1 h (human 11β-HSD type 1 [1]; mouse plasma, 1 h after 80 mg/kg oral): 101%; % inhibition at 4 h (human 11β-HSD type 1 [1]; mouse plasma, 4 h after 80 mg/kg oral): 94%; % inhibition after 4 h (human 11β-HSD type 1 [2]; 4 h after 80 mg/kg oral): 13%
2 | CN1C(C(=O)c2ccc(-c3ccc(C#N)cc3)cc2)=C([O-])c2ccccc2S1(=O)=O.[K+] [Compound 2K, potassium 3-(4′-cyanobiphenyl-4-carbonyl)-2-methyl-2H-benzo[e][1,2]thiazin-4-olate 1,1-dioxide, reference compound] | 84 | – | 86 | – | 72 | – | 26 | 63 | 29 | 65 | roughly 50% | 17 | 46 | activity on conversion of prednisone to prednisolone (11β-HSD type 1; doses below 20 mg/kg (1.25, 5 mg/kg)): inactive
3 | CN1C(C(=O)c2ccc3ccccc3c2)=C(O)c2ccccc2S1(=O)=O [Compound 1, (4-hydroxy-2-methyl-1,1-dioxido-2H-benzo[e][1,2]thiazin-3-yl)(naphthalen-2-yl)methanone] | 81 | 93 | 81 | 94 | 63 | 79 | 40 | 64 | 31 | 60 | 34% | 8 | 36 | inhibition at 2.5 mg/kg (human 11β-HSD type 1 [1]; [13]): 65 ± 8%; inhibition at 2.5 mg/kg (human 11β-HSD type 1 [1]; [14]): 58 ± 5%; inhibition at 10 mg/kg (human 11β-HSD type 1 [1]; [13]): 75 ± 8%; inhibition at 10 mg/kg (human 11β-HSD type 1 [1]; [14]): 73 ± 4%; dose as of which plasma of treated mice inhibits 11β-HSD type 1 (human 11β-HSD type 1 [1]; mice, single oral administration): 0.63 mg/kg; Plasma 1 h ([3]; 2.5 mg/kg oral): 2598 ± 1478 ng/mL; Plasma 4 h ([3]; 2.5 mg/kg oral): 2205 ± 1250 ng/mL; Plasma 1 h ([3]; 10 mg/kg oral): 3675 ± 1781 ng/mL; Plasma 4 h ([3]; 10 mg/kg oral): 3823 ± 2011 ng/mL; animals that respond favorably to the treatment (11β-HSD type 1; 5 mg/kg): 60%; inhibition of the prednisolone/prednisone ratio in animals that respond favorably (11β-HSD type 1; 5 mg/kg): 28%; animals that respond favorably to the treatment (11β-HSD type 1; 20 mg/kg): 80%; inhibition of the prednisolone/prednisone ratio in animals that respond favorably (11β-HSD type 1; 20 mg/kg): 46%; dose as of which inhibition of 11β-HSD type 1 is significant and dose-dependent (11β-HSD type 1; doses 1.25, 5 and 20 mg/kg): 5 mg/kg; clinical or behavioral sign [4]: No particular clinical or behavioral sign
